{"source": "patent US10273313B2", "about": "“Multimeric mannosides, a process for preparing the same and their uses as a drug” (CENTRE NATIONAL DE LA RECHERCHE SCIENTIFIQUE, priority 2012, dated 2019)", "key": {"FimH": {"target": "FimH (Escherichia coli, UniProt P08191)", "sequence (P08191 22-300)": "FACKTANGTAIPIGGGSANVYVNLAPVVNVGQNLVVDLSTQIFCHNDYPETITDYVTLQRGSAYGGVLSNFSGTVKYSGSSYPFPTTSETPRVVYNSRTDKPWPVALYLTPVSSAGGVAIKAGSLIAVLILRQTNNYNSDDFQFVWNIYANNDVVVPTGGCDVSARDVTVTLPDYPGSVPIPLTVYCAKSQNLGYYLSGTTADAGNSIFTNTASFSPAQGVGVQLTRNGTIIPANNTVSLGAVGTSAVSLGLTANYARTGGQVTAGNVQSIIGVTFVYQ", "type": "binding", "details": "competitive ELISA; for Concentration blocking FimH binding towards oligomannose glycans: RNAseB substrate", "experimental": "Journal of the American Society for Mass Spectrometry, 2009. […] Tested compounds were added to wells following with FimH treatment.\nPlates were coated with 100 μl of 10 mg/ml solution of RNAse-B in 100 mM carbonate/bicarbonate buffer pH 9.6. […] 2 h. Then washed three times with 10 mM PBS containing 0.05% Tween-20. […] Wells were washed three times with 10 mM PBS+0.05% Tween-20. 100 μl of anti-body conjugated to horseradish peroxidase (1:5000) was added in buffer and incubated for 1 h at room temperature. Then washed three times with 10 mM PBS+0.05% Tween-20. Added 100 μl of TMB and incubated in dark for 2-5 min. The reaction was stopped with 100 μl/well 1N sulfuric acid. Plate absorbance was analyzed at 450 nm using microplate reader."}, "[1]": {"system": "CD-associated E. coli strain AIEC LF82", "test": "Hemagglutination inhibition (HAI) with AIEC LF82, guinea pig erythrocytes", "type": "cell-based, Escherichia coli", "experimental": "AIEC adhesion to the gut occurs through the binding of FimH adhesins to the mannosylated glycans of intestinal cells. This scenario was first mimicked here with the highly mannosylated glycocalyx of guinea pig erythrocytes.\nA two-fold dilution series of the antagonists was added to wells containing guinea pig erythrocytes and AIEC LF82 bacteria. The formation of the cross-linked network (hemagglutination) due to the interaction of the E. coli FimH adhesins with the glycocalyx of the erythrocytes was prevented at a certain concentration of inhibitors. The lowest concentration at which hemagglutination is still inhibited is defined as the inhibition titer of the antagonist. HM was included in the assay to obtain a relative inhibitory concentration (rIC) for the antagonists by dividing the inhibitory concentration (IC) of the substance of interest by the value for HM. In fact, rICs are more accurate than rough inhibition titers to compare the potency of antagonists evaluated in different assays."}, "[2]": {"system": "AIEC strain LF82 adhesion to T84 intestinal epithelial cells", "test": "Adhesion assay on T84 cells with thiazolylaminomannosides (Example 22.3)", "type": "cell-based, Escherichia coli", "details": "for Inhibitory effect on adhesion: 100 nM; for inhibition at 10 µM: Escherichia coli, Epithelial cell, read-out: Inhibition of adhesion", "experimental": "T84 Intestinal Epithelial cells (overexpressing the receptor CEACAM6) were beforehand incubated for 1 h with the synthetic thiazolylaminomannosides 6-20 (examples 3-17) at different concentrations. Each compound was tested four times at concentrations of 0.1, 1, 10 and 100 μM.\nThe cells were then infected in the presence of inhibitory compounds by the AIEC strain of reference LF82 for 3 hours at a multiplicity of infection of 10 bacteria to a cell. After 3 h of incubation, the monolayer was washed and the number of AIEC bacteria associated with cells was counted. The level of adhesion of AIEC LF82 strain in the presence of inhibitors (residual adhesion) was expressed relatively to the level of adherence in the absence of any treatment (considered 100%) (FIG. 10)."}, "[3]": {"system": "AIEC LF82 bacteria adhesion to T84 intestinal epithelial cells", "test": "Adhesion assay on T84 cells, pre-, co- and post-incubation protocols (Example 21.2)", "type": "cell-based, Escherichia coli", "details": "pre-incubation assay", "experimental": "E. coli strain LF82 was isolated from a chronic ileal lesion of a patient with Crohn's disease (CD). Bacteria were grown routinely in Luria-Bertani (LB) broth overnight at 37° C. Intestinal epithelial cells T84 derived from colonic adenocarcinoma were maintained in an atmosphere containing 5% CO2 at 37° C. in DMEM/F12 (50/50) medium supplemented with 10% (v/v) heat-inactivated fetal calf serum (FCS), 1% L-glutamine, 100 000 U·l^−1 penicillin, 100 mg·l^−1 streptomycin, 25 μg·l^−1 amphotericin B.\nT84 were seeded in 48-well plates at a concentration of 1.5×10^5 cells per well and grown for 48 h. AIEC LF82 bacteria were incubated 1 h with each mannoside prior the cell infection (pre-incubation protocol) or they were added simultaneously onto the cells (co-incubation protocol) in complete medium without antibiotics, containing heat inactivated fetal calf serum (FCS). Heptyl-mannose or compound 2 (example 1) were tested at a dose of 100; 10; 1 or 0.1 μM. D-D-mannose was tested at a dose of 10 000; 1 000; 100 or 10 μM and compound 1 (example 2bis) was tested at a concentration of 500; 100; 10 or 1 μM. Cells were infected with AIEC LF82 bacteria at a multiplicity of infection (MOI) of 10 bacteria per cell for 3 h at 37° C. For the post-incubation protocol, mannosides were incubated with cells for 3 h after bacterial infection. A washing step was realized before this post-incubation to eliminate non-adherent bacteria. Monolayers were washed in phosphate-buffered saline (PBS; pH 7.2) and cells were then lysed with 1% Triton X-100 in deionized water. Samples were diluted and plated onto Luria Bertani agar plates to determine the number of colony-forming units (CFU) recovered from the lysed monolayers. Results were expressed as percentages of residual adhesion, considering adhesion level of AIEC LF82 without mannoside treatment as 100%."}, "[4]": {"system": "AIEC LF82 bacteria on colonic tissue from transgenic mice expressing human CEACAM6", "test": "Ex-vivo adhesion assay on colonic tissue of CEABAC10 mice", "set-up": "species or system CEABAC10 transgenic mice", "details": "1 h", "experimental": "E. coli strain LF82 was isolated from a chronic ileal lesion of a patient with Crohn's disease (CD). Bacteria were grown routinely in Luria-Bertani (LB) broth overnight at 37° C.\nAdhesion assay of AIEC LF82 bacteria were performed using colonic tissue from transgenic mice expressing the human CEACAM6 protein (C. H. Chan, C. P. Stanners “Novel mouse model for carcinoembryonic antigen-based therapy”, Mol Ther. 2004; 9, 775-785). Briefly, 10 to 12-week-old FVB/N CEABAC10 transgenic mice were anesthetized, euthanized by cervical dislocation and colons were removed. Colons were washed twice in phosphate buffer saline (PBS) and were segmented in 4 independent loops of ≈0.6 cm. A volume of 100 μL of LF82 bacteria at 2×10^6 bacteria/mL in PBS or of a mix of LF82 bacteria+D-mannose (1 μmol and 10 μmol) or compound 13 (0.1 μmol and 0.01 μmol) were injected into the loops. Loops were incubated 1 h at 37° C. in an atmosphere containing 5% of CO2, and then opened and washed 4 times in PBS. Tissues were homogenized, appropriately diluted and plated onto Luria-Bertani agar plates containing ampicillin (100 μg/mL) and erythromycin (20 μg/mL) to select AIEC LF82 bacteria.\nEntire colons from CEABAC10 mice were collected and washed two times with PBS. The colon was divided in 4 isolated loops and 100 μL of a bacterial suspension containing […] bacteria/mL with or without inhibitory compounds were injected into the loops. D-mannose was tested at a dose of 1 and 10 μmol and monovalent 13 was tested at a dose of 0.01 and 0.1 μmol. After a 1 h-period of incubation, samples were extensively washed and homogenized to numerate adherent bacteria. Bacterial adhesion was expressed as percentages of residual adhesion (100% corresponds to the adhesion in absence of any compound)."}}, "note": "“Also recorded” adds a separate entry of the source."}
{"compound": "O=C(c1ccsc1)c1cnc(N[C@H]2OC(CO)[C@@H](O)[C@H](O)C2O)s1", "note": "(mixture of isomers) [Compound 12, 2-(α-D-mannopyranosyl)amino-5-(thiophene-3-carbonyl)thiazole]", "values": [{"measurement": "Concentration blocking FimH binding towards oligomannose glycans", "setting": "FimH", "result": 50, "unit": "nM"}]}
{"compound": "O=C(c1cccs1)c1cnc(N[C@H]2OC(CO)[C@@H](O)[C@H](O)C2O)s1", "note": "(mixture of isomers) [Compound 14, 2-(α-D-mannopyranosyl)amino-5-(thiophene-2-carbonyl)thiazole]", "values": [{"measurement": "Concentration blocking FimH binding towards oligomannose glycans", "setting": "FimH", "result": 50, "unit": "nM"}]}
{"compound": "O=C(c1cnc(N[C@H]2O[C@H](CO)[C@@H](O)[C@H](O)[C@@H]2O)s1)C(F)(F)F", "note": "[Compound 7, 2-(α-D-mannopyranosyl)amino-5-trifluoroacetylthiazole]", "values": [{"measurement": "Concentration blocking FimH binding towards oligomannose glycans", "setting": "FimH", "result": 50, "unit": "nM"}, {"measurement": "Inhibitory potency in HAI (in words)", "setting": "[1]", "result": "less potent than HM; also recorded: significantly less potent than 6"}]}
{"compound": "O=C(c1ccccc1)c1cnc(N[C@H]2O[C@H](CO)[C@@H](O)[C@H](O)[C@@H]2O)s1", "note": "[Compound 8, 2-(α-D-mannopyranosyl)amino-5-benzoylthiazole]", "values": [{"measurement": "Level of inhibition compared to the HM reference", "setting": "FimH", "result": "significantly higher level of inhibition"}, {"measurement": "Concentration blocking FimH binding towards oligomannose glycans", "setting": "FimH", "result": 5, "unit": "nM"}, {"measurement": "Inhibitory effect on adhesion", "setting": "[2]", "result": "significant inhibitory effect"}]}
{"compound": "CC(C)(C)C(=O)c1cnc(N[C@H]2OC(CO)[C@@H](O)C(O)C2O)s1", "note": "(stereo partly drawn) [Compound 9, 2-(α-D-mannopyranosyl)amin-5-tert-butylcarbonylthiazole]", "values": [{"measurement": "Concentration blocking FimH binding towards oligomannose glycans", "setting": "FimH", "result": 50, "unit": "nM"}]}
{"compound": "O=C(c1ccc([N+](=O)[O-])cc1)c1cnc(N[C@H]2O[C@H](CO)[C@@H](O)[C@H](O)[C@@H]2O)s1", "note": "[Compound 10, 2-(α-D-mannopyranosyl)amino-5-(4-nitrobenzoyl)thiazole]", "values": [{"measurement": "Inhibitory potency in HAI (in words)", "setting": "[1]", "result": "less potent than the unsubstituted phenyl analogue 8"}, {"measurement": "Inhibitory effect on adhesion", "setting": "[2]", "result": "significant inhibitory effect"}, {"measurement": "inhibition at 10 µM", "setting": "[2]", "result": "> 90", "unit": "%"}]}
{"compound": "Cc1ccc(C(=O)c2cnc(N[C@H]3O[C@H](CO)[C@@H](O)[C@H](O)[C@@H]3O)s2)cc1", "note": "[Compound 11, 2-(α-D-mannopyranosyl)amino-5-(4-methylbenzoyl)thiazole]", "values": [{"measurement": "Concentration blocking FimH binding towards oligomannose glycans", "setting": "FimH", "result": 50, "unit": "nM"}]}
{"compound": "O=C(c1cnc(N[C@H]2OC(CO)[C@@H](O)C(O)C2O)s1)C12CC3CC(CC(C3)C1)C2", "note": "(stereo partly drawn) [Compound 16, 5-((3r,5r,7r)-adamantane-1-carbonyl)-2-(α-D-mannopyranosyl)aminothiazole]", "values": [{"measurement": "Inhibitory potency in HAI (in words)", "setting": "[1]", "result": "significant improvement"}, {"measurement": "Inhibitory effect on adhesion", "setting": "[2]", "result": "significant inhibitory effect"}]}
{"compound": "O=C(c1ccncc1)c1cnc(N[C@H]2O[C@H](CO)[C@@H](O)[C@H](O)[C@@H]2O)s1", "note": "[Compound 17, 2-(α-D-mannopyranosyl)amino-5-isonicotinoylthiazole]", "values": [{"measurement": "inhibition at 10 µM", "setting": "[2]", "result": "> 90", "unit": "%"}]}
{"compound": "O=C(c1ccc(Br)cc1)c1cnc(N[C@H]2O[C@H](CO)[C@@H](O)[C@H](O)[C@@H]2O)s1", "note": "[Compound 19, 2-(α-D-mannopyranosyl)amino-5-(4-bromobenzoyl)thiazole]", "values": [{"measurement": "inhibition at 10 µM", "setting": "[2]", "result": "> 90", "unit": "%"}]}
{"compound": "N#Cc1ccc(C(=O)c2cnc(N[C@H]3O[C@H](CO)[C@@H](O)[C@H](O)[C@@H]3O)s2)cc1", "note": "[Compound 20, 2-(α-D-mannopyranosyl)amino-5-(4-cyanobenzoyl)thiazole]", "values": [{"measurement": "Inhibitory potency in HAI (in words)", "setting": "[1]", "result": "less potent than the unsubstituted phenyl analogue 8"}]}
{"compound": "OC[C@H]1O[C@H](O)[C@@H](O)[C@@H](O)[C@@H]1O", "note": "[D-mannose, α-D-mannose, reference compound]", "values": [{"measurement": "Concentration leading to decreased adhesion levels of at least 50%", "setting": "[3]", "result": 1000, "unit": "µM"}, {"measurement": "Residual adhesion", "setting": "[2]; 1000 μM", "result": 51.6, "unit": "%"}, {"measurement": "Bacterial adhesion", "setting": "[4]; 1 μmol", "result": "no decrease"}, {"measurement": "Bacterial adhesion (residual)", "setting": "[4]; dose of 10 μmol", "result": 41, "unit": "%"}]}
